Measurements from a melting point compilation (Tetko et al.; mined from patent text by program, amines drawn as free bases though some values may be those of a salt).

Row | Structure (SMILES) | melting point
1 | O=c1[nH]c(=O)n(-c2ccccc2)n1-c1ccccc1 | 216 to 217 °C
2 | Cc1nc(-n2ccc(O)cc2=O)sc1C(=O)NCc1cccc(F)c1 | 250 to 252 °C
3 | O=C(O)c1cccc2cc(Cc3cc(=O)[nH]c(=S)[nH]3)ccc12 | 334 to 337 °C
4 | O=C1NN=CC1=CNCCC(F)=C(F)F | 126 to 130 °C
5 | CC(=O)C=Cc1c(C)c(C)c(C)c2c1OCC2 | 116 °C
6 | COc1ccc([C@@H]2CN(C)CC[C@@H]2NC(=O)c2ccccc2)cc1 (relative stereo) | 164 to 165 °C
7 | O=C(O)c1ccc(C(=O)N2Cc3cccn3Cc3ccccc32)cc1 | 210 to 214 °C
8 | OCC1(CO)CC2C=CC1C2 (configuration not stated) | 110 °C
9 | C=CCOc1nc(N)c2ccccc2n1 | 105 to 110 °C
10 | CCc1ccnc(C(=O)c2[nH]c3ccc(OC(F)(F)F)cc3c2CC(=O)O)c1 | 223 °C
11 | O=C1COCCOCC(=O)NCCSCCSCCN1 | 145 °C
12 | O=C(O)CCCCCOc1cc(-c2ccccc2)cc(-c2ccccc2)n1 | 87 to 88 °C
13 | c1cc(-c2cn3c(n2)CCC3)ccn1 | 140 to 141 °C
14 | CCCCCCCCCCNC(=O)c1ccccc1N | 72 to 74 °C
15 | O=C(O)COC1=C(C(=O)Nc2cc(Cl)cc(Cl)c2)SC2=NCCCN21 | 247 °C
16 | O=C1c2ccncc2C(=O)c2c(F)ccc(F)c21 | 197 to 199 °C
17 | OCc1nc2n(n1)-c1ccccc1N(c1ccc(Cl)cc1)C2 | 190 to 195 °C
18 | c1ccc(Nc2ncnc3[nH]nc(Nc4ccccc4)c23)cc1 | 263 to 264 °C
19 | COC(=O)NC[C@H]1CN(c2cc(F)c(N3CCC(n4ncnn4)CC3)c(F)c2)C(=O)O1 | 168 to 170 °C
20 | O=C1c2cc([N+](=O)[O-])ccc2OCN1CCO[N+](=O)[O-] | 97 to 99 °C
21 | N=c1[nH]c2ccncc2c2nc(-c3ccco3)nn12 | 320 to 321 °C
22 | O=C1CCC2=C(c3ccc(Cl)cc3)c3ccccc3C2N1 (configuration not stated) | 236 to 238 °C
23 | Cc1nnc2nc(-c3cccc(C(F)(F)F)c3)cnn12 | 230 to 233 °C
24 | Cc1cccc2c1NC(=O)C2 | 206 to 207 °C
25 | CNc1ccc(Cl)c(-c2cc(=O)c3c(O)cc(O)c(C4CCN(C)C4CO)c3o2)c1 (configuration not stated) | 208 to 210 °C
26 | CCC(CC)n1nc2c(C(F)(F)F)cccc2c1-c1ccc(OC)cc1OC | 138 to 139 °C

Row | Structure (SMILES) | melting point
27 | NC[C@H]1COc2ccc(Cl)c(-c3ccccc3C(F)(F)F)c2O1 | 84 °C
28 | CCC1(CO)COCOC1 | 95 to 102 °C
29 | O=S(=O)(Nc1cccc(Cl)c1F)c1cc(S(=O)(=O)Nc2cccc(Cl)c2F)c2cc(O)ccc2c1 | 126 to 128 °C
30 | CS(=O)(=O)c1ccc(-c2cnn(CC(=O)c3ccc(C#N)cc3)c(=O)c2-c2ccc(F)cc2)cc1 | 188 to 189 °C
31 | CS(=O)(=O)c1ccc(C(=O)c2cc(-c3ccc(S(C)(=O)=O)cc3)c(N3CCOCC3)s2)cc1 | 190 °C
32 | Cc1ccc(-c2ccn(C(C)C(=O)N(C)C)n2)cc1 (configuration not stated) | 79 to 82 °C
33 | COC(=O)CNC(=O)OC1c2ccccc2C(=O)N1c1ccc2ccc(Cl)nc2n1 (configuration not stated) | 208 to 210 °C
34 | COc1cc2nc(N3CCN(C(=O)C4CC=CC4)CC3)nc(N)c2cc1OC | 216 to 218 °C
35 | BrCOc1cccc(OCc2ccccc2)c1 | 70 to 71 °C
36 | COc1ccc2c(c1)C13CCCC4OC41C(C2)N(C(=O)C1CC1)CC3 (configuration not stated) | 134 to 136 °C
37 | OC1CC2(CCNC2)c2ccc(Cl)c(Cl)c21 (configuration not stated) | 167 to 170 °C
38 | COCOc1ccc(C=O)c(Oc2ncc(C(F)(F)F)cc2Cl)c1 | 93.9 to 94 °C
39 | CCCC(CC(=O)NC(=O)OC(C)(C)C)Nc1ccc(Cl)cc1 (configuration not stated) | 76 to 77 °C
40 | Cc1ccccc1-c1cc(F)c2ncc(C(=O)NCc3ccc(Cl)cc3)c(O)c2c1 | 259 to 265 °C
41 | COc1ccc(-c2c(O)c3ccc(Cl)cc3[nH]c2=O)cc1 | > 350 °C
42 | N#CN1CCN2c3ccccc3Cc3ccccc3C2C1 (configuration not stated) | 164 to 166 °C
43 | COc1ccc(C2Cc3ccccc3N=C(C)N2C)cc1 (configuration not stated) | 130 to 132 °C
44 | COC(=O)C(C)Oc1ccc(Sc2cc(-n3nc(C)n(C(F)F)c3=O)c(Cl)cc2Cl)cc1 (configuration not stated) | 100 to 101 °C
45 | COc1cc2ccc(-c3ccc(C(=O)O)cc3)cc2cc1C12CC3CC(CC(C3)C1)C2 | 360 °C
46 | O=C1CCC(=O)N1CCSc1ccc(O)cc1 | 114 to 122 °C
47 | CC(C)N(CCCC(=O)OC1c2ccccc2C(=O)N1c1ccc2ccc(Cl)nc2n1)C(C)C (configuration not stated) | 118 °C
48 | CCN(CC)CC(=O)OC1CC2(C)C(C(C)=O)CCC2C2CCC3CC(O)C=CC3(C)C12 (configuration not stated) | 134 to 138 °C
49 | S=C(Nc1cc(Cl)cc(Cl)c1)Nc1cc(OCc2cccc3ccccc23)ccc1Br | 149 to 151 °C
50 | Cc1cccc(NC(=O)NCC(=O)N2[C@@H](C(=O)OC(C)(C)C)C[C@H](C(=O)O)[C@H]2c2ccccc2)c1 (racemic) | 160 °C
51 | Nc1ccc(C(O)c2ccccn2)c(OCC(F)(F)F)c1 (configuration not stated) | 97 to 99 °C
52 | CCCCCCCCNCC(O)C(O)C(O)C(O)CO (configuration not stated) | 114 to 116 °C
